Assay results published in ChEMBL document CHEMBL5143749, “Discovery of Insulin/GLP-1/Glucagon Triagonists for the Treatment of Diabetes and Obesity” (ACS Med Chem Lett, 2022).

How the values were obtained:
[1] = species on record: Homo sapiens; experiment: Selectivity ratio of EC50 for human […] expressed in frozen cells to EC50 for human GLP1R expressed in frozen cells; type: cell-based
[2] = molecular target: Glucagon-like peptide 1 receptor (Homo sapiens, UniProt P43220); experiment: Agonist activity at human GLP1R expressed in frozen cells assessed as measuring the cAMP level incubated for 1 hr by HitHunter chemiluminescence based assay; type: functional, cell-based
[3] = molecular target: Glucagon receptor (Homo sapiens, UniProt P47871); experiment: Agonist activity at human GCGR expressed in frozen cells assessed as measuring the cAMP level incubated for 1 hr by HitHunter chemiluminescence based assay; type: functional, cell-based
Chain of Glucagon receptor (P47871 whole entry): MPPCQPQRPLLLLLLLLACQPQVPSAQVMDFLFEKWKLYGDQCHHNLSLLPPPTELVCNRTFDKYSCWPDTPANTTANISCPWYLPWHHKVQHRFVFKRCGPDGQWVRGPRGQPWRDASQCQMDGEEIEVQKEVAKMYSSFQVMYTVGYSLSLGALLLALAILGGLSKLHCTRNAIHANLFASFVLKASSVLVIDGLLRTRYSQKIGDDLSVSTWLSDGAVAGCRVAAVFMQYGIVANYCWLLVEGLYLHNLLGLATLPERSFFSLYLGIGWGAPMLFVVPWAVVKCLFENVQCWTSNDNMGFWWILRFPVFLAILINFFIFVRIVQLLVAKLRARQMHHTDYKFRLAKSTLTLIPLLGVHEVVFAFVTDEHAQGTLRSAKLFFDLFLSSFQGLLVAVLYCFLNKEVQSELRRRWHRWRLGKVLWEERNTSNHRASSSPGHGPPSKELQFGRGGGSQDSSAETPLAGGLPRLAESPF

Chain of Glucagon-like peptide 1 receptor (P43220 whole entry): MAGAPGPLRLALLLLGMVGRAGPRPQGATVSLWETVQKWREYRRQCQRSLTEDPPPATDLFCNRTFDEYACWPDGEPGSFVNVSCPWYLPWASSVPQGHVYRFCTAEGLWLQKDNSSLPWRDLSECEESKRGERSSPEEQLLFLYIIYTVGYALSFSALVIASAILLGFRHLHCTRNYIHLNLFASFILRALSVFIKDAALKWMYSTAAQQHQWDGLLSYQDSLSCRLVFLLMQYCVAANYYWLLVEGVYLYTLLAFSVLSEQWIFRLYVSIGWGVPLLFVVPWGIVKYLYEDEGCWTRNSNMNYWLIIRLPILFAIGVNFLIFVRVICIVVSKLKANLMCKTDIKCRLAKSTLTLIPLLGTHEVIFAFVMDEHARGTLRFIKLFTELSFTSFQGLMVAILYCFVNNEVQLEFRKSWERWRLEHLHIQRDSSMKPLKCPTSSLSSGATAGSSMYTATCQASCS

Row | EC50 [2] [pM] | EC50 [3] [pM] | SMILES | Ratio EC50 [1]
1 | – | – | CCCCCCCCCCCCCCCC(=O)N[C@@H](CCC(=O)N[C@@H](CCC(=O)NCCCC[C@H](NC(=O)[C@H](CC(=O)O)NC(=O)[C@H](CO)NC(=O)[C@@H](NC(=O)[C@H](Cc1ccccc1)NC(=O)[C@@H](NC(=O)CNC(=O)[C@H](CCC(N)=O)NC(=O)[C@@H](CO)NC(=O)[C@@H](N)Cc1cnc[nH]1)[C@@H](C)O)[C@@H](C)O)C(=O)N[C@@H](CO)C(=O)N[C@@H](CCCCN)C(=O)N[C@@H](Cc1ccc(O)cc1)C(=O)N[C@@H](CC(C)C)C(=O)N[C@@H](CC(=O)O)C(=O)N[C@@H](C)C(=O)N[C@@H](CCCNC(=N)N)C(=O)N[C@@H](C)C(=O)N[C@@H](C)C(=O)N[C@@H](CCC(N)=O)C(=O)N[C@@H](CC(=O)O)C(=O)N[C@@H](Cc1ccccc1)C(=O)N[C@H](C(=O)N[C@@H](CCC(N)=O)C(=O)N[C@@H](Cc1c[nH]c2ccccc12)C(=O)N[C@@H](CC(C)C)C(=O)N[C@@H](CC(C)C)C(=O)N[C@@H](CC(=O)O)C(=O)N[C@H](C(N)=O)[C@@H](C)O)C(C)C)C(=O)O)C(=O)O | 0.9
2 | – | – | CCCCCCCCCCCCCCCC(=O)N[C@@H](CCC(=O)N[C@@H](CCC(=O)NCCCC[C@H](NC(=O)[C@H](CC(=O)O)NC(=O)[C@H](CO)NC(=O)[C@@H](NC(=O)[C@H](Cc1ccccc1)NC(=O)[C@@H](NC(=O)CNC(=O)[C@H](CCC(N)=O)NC(=O)[C@@H](CO)NC(=O)[C@@H](N)Cc1c[nH]cn1)[C@@H](C)O)[C@@H](C)O)C(=O)N[C@@H](CO)C(=O)N[C@@H](CCCCN)C(=O)N[C@@H](Cc1ccc(O)cc1)C(=O)N[C@@H](CC(C)C)C(=O)N[C@@H](CC(=O)O)C(=O)N[C@@H](CCC(=O)O)C(=O)N[C@@H](CCCNC(=N)N)C(=O)N[C@@H](C)C(=O)N[C@@H](C)C(=O)N[C@@H](CCCCNC(=O)COCCOCCNC(=O)CCCCN=[N+]=[N-])C(=O)N[C@@H](CC(=O)O)C(=O)N[C@@H](Cc1ccccc1)C(=O)N[C@H](C(=O)N[C@@H](CCC(N)=O)C(=O)N[C@@H](Cc1c[nH]c2ccccc12)C(=O)N[C@@H](CC(C)C)C(=O)N[C@@H](CC(C)C)C(=O)N[C@@H](CC(=O)O)C(=O)N[C@H](C(N)=O)[C@@H](C)O)C(C)C)C(=O)O)C(=O)O | 0.8
3 | – | – | CCCCCCCCCCCCCCCC(=O)N[C@@H](CCC(=O)N[C@@H](CCC(=O)NCCCC[C@H](NC(=O)[C@H](CC(=O)O)NC(=O)[C@H](CO)NC(=O)[C@@H](NC(=O)[C@H](Cc1ccccc1)NC(=O)[C@@H](NC(=O)CNC(=O)[C@H](CCC(N)=O)NC(=O)C(C)(C)NC(=O)[C@@H](N)Cc1c[nH]cn1)[C@@H](C)O)[C@@H](C)O)C(=O)N[C@@H](CO)C(=O)N[C@@H](CCCCN)C(=O)N[C@@H](Cc1ccc(O)cc1)C(=O)N[C@@H](CC(C)C)C(=O)N[C@@H](CC(=O)O)C(=O)NC(C)(C)C(=O)N[C@@H](CCCNC(=N)N)C(=O)N[C@@H](C)C(=O)N[C@@H](C)C(=O)N[C@@H](CCC(N)=O)C(=O)N[C@@H](CC(=O)O)C(=O)N[C@@H](Cc1ccccc1)C(=O)N[C@H](C(=O)N[C@@H](CCC(N)=O)C(=O)N[C@@H](Cc1c[nH]c2ccccc12)C(=O)N[C@@H](CC(C)C)C(=O)N[C@@H](CC(C)C)C(=O)N[C@@H](CC(=O)O)C(=O)N[C@H](C(=O)N[C@@H](CCCCN)C(=O)N[C@@H](CCCCN=[N+]=[N-])C(N)=O)[C@@H](C)O)C(C)C)C(=O)O)C(=O)O | 1.4
4 | 1040 | – | CCCCCCCCCCCCCCCC(=O)N[C@@H](CCC(=O)N[C@@H](CCC(=O)NCCCC[C@H](NC(=O)[C@H](CC(=O)O)NC(=O)[C@H](CO)NC(=O)[C@@H](NC(=O)[C@H](Cc1ccccc1)NC(=O)[C@@H](NC(=O)CNC(=O)[C@H](CCC(N)=O)NC(=O)[C@@H](CO)NC(=O)[C@@H](N)Cc1c[nH]cn1)[C@@H](C)O)[C@@H](C)O)C(=O)N[C@@H](CO)C(=O)N[C@@H](CC(C)C)C(=O)N[C@@H](Cc1ccc(O)cc1)C(=O)N[C@@H](CC(C)C)C(=O)N[C@@H](CC(=O)O)C(=O)NC(C)(C)C(=O)N[C@@H](CCCNC(=N)N)C(=O)N[C@@H](C)C(=O)N[C@@H](C)C(=O)N[C@@H](CCC(N)=O)C(=O)N[C@@H](CC(=O)O)C(=O)N[C@@H](Cc1ccccc1)C(=O)N[C@H](C(=O)N[C@@H](CCC(N)=O)C(=O)N[C@@H](Cc1c[nH]c2ccccc12)C(=O)N[C@@H](CC(C)C)C(=O)N[C@@H](CC(C)C)C(=O)N[C@@H](CC(N)=O)C(=O)N[C@H](C(=O)N[C@@H](CCCCN=[N+]=[N-])C(=O)N[C@@H](CCC(N)=O)C(=O)O)[C@@H](C)O)C(C)C)C(=O)O)C(=O)O | –
5 | 28 | 13 | CCCCCCCCCCCCCCCC(=O)N[C@@H](CCC(=O)N[C@@H](CCC(=O)NCCCC[C@H](NC(=O)[C@H](CC(=O)O)NC(=O)[C@H](CO)NC(=O)[C@@H](NC(=O)[C@H](Cc1ccccc1)NC(=O)[C@@H](NC(=O)CNC(=O)[C@H](CCC(N)=O)NC(=O)[C@@H](CO)NC(=O)[C@@H](N)Cc1c[nH]cn1)[C@@H](C)O)[C@@H](C)O)C(=O)N[C@@H](CO)C(=O)N[C@@H](CCCCN)C(=O)N[C@@H](Cc1ccc(O)cc1)C(=O)N[C@@H](CC(C)C)C(=O)N[C@@H](CC(=O)O)C(=O)N[C@@H](CCC(=O)O)C(=O)N[C@@H](CCCNC(=N)N)C(=O)N[C@@H](C)C(=O)N[C@@H](C)C(=O)N[C@@H](CCC(N)=O)C(=O)N[C@@H](CCCCN=[N+]=[N-])C(=O)N[C@@H](Cc1ccccc1)C(=O)N[C@H](C(=O)N[C@@H](CCC(N)=O)C(=O)N[C@@H](Cc1c[nH]c2ccccc12)C(=O)N[C@@H](CC(C)C)C(=O)N[C@@H](CC(C)C)C(=O)N[C@@H](CC(=O)O)C(=O)N[C@H](C(N)=O)[C@@H](C)O)C(C)C)C(=O)O)C(=O)O | 0.5
